Source: patent WO2005094256A2, “Polypeptides toxic to nematodes, and methods of use” (Individual, priority 2004, dated 2005)
Where a name gives a salt, the structure may show the parent alone. *1 amine or outer side, *2 acyl side, *3 side chain or, on linkers, in order; H or OH if unused. Where a SMILES comes first, the peptide text is derived from it. [ ]: non-standard residue; d: D form. The star is where a group is joined. Sta = CC(C)C[C@H](N)[C@@H](O)CC(=O)O; Isovaleryl = CC(C)CC(=O)*; CO = O=C([*:1])[*:2]

Test system: serratia metalloprotease SMP #1 from Serratia marcescens NRRL B-23112, SEQ ID NO:2
Experiment: Inhibition of protease activity of SMP #1: residual proteolytic (casein digestion) activity after addition of inhibitor, 25°C, 30 minutes
Type: biochemical

SMILES: OCCS [2-mercaptoethanol]
- activity of SMP #1 retained in the presence of 2-mercaptoethanol (0.5% v/v): retains full activity

SMILES: CC(C)C[C@H](NC(=O)[C@H]1O[C@@H]1C(=O)O)C(=O)NCCCCNC(=N)N [E-64]
- inhibition of SMP #1 (20μg/ml): not inhibited

SMILES: O=C(O)CN(CCN(CC(=O)O)CC(=O)O)CC(=O)O [EDTA]
- inhibition of SMP #1 (9μg/ml): inhibited

SMILES: Cl.NCCc1ccc(S(=O)(=O)F)cc1 [Pefabloc SC]
- inhibition of SMP #1 (2000μg/ml): not inhibited

SMILES: CC(C)[C@H](NC(=O)[C@H](CCCNC(=N)N)NC(=O)N[C@@H](Cc1ccccc1)C(=O)O)C(=O)N[C@H](C=O)CCCNC(=N)N [antipain dihydrochloride] ({Phe-CO}-Arg-Val-Arg-aldehyde)
- inhibition of SMP #1 (120μg/ml): not inhibited

SMILES: CC(C)C[C@H](NC(=O)[C@@H](O)[C@H](N)Cc1ccccc1)C(=O)O [bestatin]
- inhibition of SMP #1 (80μg/ml): not inhibited

SMILES: CC(C)C[C@H](NC(=O)[C@@H](NC(=O)N[C@@H](Cc1ccccc1)C(=O)O)[C@@H]1CCN=C(N)N1)C(=O)N[C@H](C=O)Cc1ccccc1 [chymostatin]
- inhibition of SMP #1 (50μg/ml): not inhibited

SMILES: CC(=O)N[C@@H](CC(C)C)C(=O)N[C@@H](CC(C)C)C(=O)N[C@H](C=O)CCCNC(=N)N [leupeptin]
- inhibition of SMP #1 (4μg/ml): not inhibited

SMILES: CC(C)CC(=O)N[C@H](C(=O)N[C@H](C(=O)N[C@@H](CC(C)C)[C@@H](O)CC(=O)N[C@@H](C)C(=O)N[C@@H](CC(C)C)[C@@H](O)CC(=O)O)C(C)C)C(C)C [pepstatin] (Isovaleryl-VV[Sta]A[Sta]-OH)
- inhibition of SMP #1 (4μg/ml): not inhibited

SMILES: O=S(=O)(F)Cc1ccccc1 [phenylmethylsulfonyl fluoride]
- inhibition of SMP #1 (400μg/ml): not inhibited

SMILES: CC(C)C[C@H](NP(=O)(O)O[C@@H]1O[C@@H](C)[C@H](O)[C@@H](O)[C@H]1O)C(=O)N[C@@H](Cc1c[nH]c2ccccc12)C(=O)O [phosphoramidon]
- inhibition of SMP #1 (660μg/ml): not inhibited
